Tests used:
[1] = molecular target: Phosphorylase b kinase gamma catalytic chain, skeletal muscle/heart isoform (Homo sapiens, UniProt Q16816)
[2] = molecular target: T1, Serine/threonine-protein kinase PLK4 (Homo sapiens, UniProt O00444)
T1 sequence (O00444 whole entry): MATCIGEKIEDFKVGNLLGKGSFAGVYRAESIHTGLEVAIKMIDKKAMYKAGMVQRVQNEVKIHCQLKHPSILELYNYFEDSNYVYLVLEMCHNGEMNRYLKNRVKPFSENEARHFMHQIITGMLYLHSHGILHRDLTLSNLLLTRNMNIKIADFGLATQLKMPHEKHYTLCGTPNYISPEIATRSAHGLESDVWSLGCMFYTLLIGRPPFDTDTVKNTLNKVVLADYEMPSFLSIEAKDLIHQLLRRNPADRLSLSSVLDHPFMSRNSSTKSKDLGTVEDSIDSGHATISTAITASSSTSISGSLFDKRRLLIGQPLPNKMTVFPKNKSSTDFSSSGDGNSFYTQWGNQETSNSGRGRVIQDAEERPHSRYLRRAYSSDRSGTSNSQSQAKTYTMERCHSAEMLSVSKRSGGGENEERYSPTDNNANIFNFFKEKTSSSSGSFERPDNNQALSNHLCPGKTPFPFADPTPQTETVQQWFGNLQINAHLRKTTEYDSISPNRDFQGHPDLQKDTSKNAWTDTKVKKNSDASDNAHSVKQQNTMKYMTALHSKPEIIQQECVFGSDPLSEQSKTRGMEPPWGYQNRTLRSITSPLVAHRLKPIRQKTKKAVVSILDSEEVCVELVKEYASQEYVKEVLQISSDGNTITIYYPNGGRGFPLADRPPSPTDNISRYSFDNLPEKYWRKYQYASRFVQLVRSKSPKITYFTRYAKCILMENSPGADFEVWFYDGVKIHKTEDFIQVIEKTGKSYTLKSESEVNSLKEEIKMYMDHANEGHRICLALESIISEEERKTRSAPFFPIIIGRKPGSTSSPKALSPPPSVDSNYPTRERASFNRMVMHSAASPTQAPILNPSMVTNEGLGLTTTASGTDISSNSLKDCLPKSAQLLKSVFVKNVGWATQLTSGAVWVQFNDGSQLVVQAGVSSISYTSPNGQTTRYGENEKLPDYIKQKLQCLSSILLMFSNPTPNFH

[3] = molecular target: T2, Serine/threonine-protein kinase 3 (Mus musculus, UniProt Q9JI10)
T2 sequence (Q9JI10 whole entry): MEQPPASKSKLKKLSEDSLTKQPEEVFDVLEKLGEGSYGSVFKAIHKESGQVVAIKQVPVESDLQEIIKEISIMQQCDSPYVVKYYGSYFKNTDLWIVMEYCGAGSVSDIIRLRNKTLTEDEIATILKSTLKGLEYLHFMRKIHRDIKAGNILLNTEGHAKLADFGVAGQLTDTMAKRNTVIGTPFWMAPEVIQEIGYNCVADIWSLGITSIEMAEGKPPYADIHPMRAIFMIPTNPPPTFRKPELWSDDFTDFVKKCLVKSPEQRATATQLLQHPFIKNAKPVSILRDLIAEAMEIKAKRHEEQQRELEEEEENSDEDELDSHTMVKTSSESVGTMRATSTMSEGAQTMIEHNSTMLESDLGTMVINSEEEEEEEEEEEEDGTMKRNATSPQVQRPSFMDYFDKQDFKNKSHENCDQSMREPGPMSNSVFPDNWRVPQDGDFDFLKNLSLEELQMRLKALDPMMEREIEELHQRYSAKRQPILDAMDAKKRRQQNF

[4] = molecular target: Calcium/calmodulin-dependent protein kinase type II subunit gamma (Homo sapiens, UniProt Q13555)
[5] = molecular target: Activated CDC42 kinase 1 (Homo sapiens, UniProt Q07912)
[6] = molecular target: MAP kinase-interacting serine/threonine-protein kinase 2 (Homo sapiens, UniProt Q9HBH9)
[7] = molecular target: Tyrosine-protein kinase ABL1 (Homo sapiens, UniProt P00519, T315I)
[8] = molecular target: Serine/threonine-protein kinase pim-1 (Homo sapiens, UniProt P11309)
[9] = molecular target: Calcium/calmodulin-dependent protein kinase type 1 (Homo sapiens, UniProt Q14012)
Sequence of Calcium/calmodulin-dependent protein kinase type 1 (Q14012 whole entry): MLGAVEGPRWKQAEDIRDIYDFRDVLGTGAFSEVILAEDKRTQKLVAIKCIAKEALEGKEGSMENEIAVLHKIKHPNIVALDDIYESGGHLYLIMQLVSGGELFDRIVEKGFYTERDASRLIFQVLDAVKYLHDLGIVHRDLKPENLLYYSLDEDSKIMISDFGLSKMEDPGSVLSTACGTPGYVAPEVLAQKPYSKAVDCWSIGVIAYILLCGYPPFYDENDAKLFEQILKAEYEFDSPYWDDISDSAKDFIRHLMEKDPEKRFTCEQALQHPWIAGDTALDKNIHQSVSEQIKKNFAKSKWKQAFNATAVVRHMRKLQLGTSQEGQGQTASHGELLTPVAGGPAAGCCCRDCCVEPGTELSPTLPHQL

[10] = molecular target: High affinity nerve growth factor receptor (Homo sapiens, UniProt P04629)
Sequence of High affinity nerve growth factor receptor (P04629 whole entry): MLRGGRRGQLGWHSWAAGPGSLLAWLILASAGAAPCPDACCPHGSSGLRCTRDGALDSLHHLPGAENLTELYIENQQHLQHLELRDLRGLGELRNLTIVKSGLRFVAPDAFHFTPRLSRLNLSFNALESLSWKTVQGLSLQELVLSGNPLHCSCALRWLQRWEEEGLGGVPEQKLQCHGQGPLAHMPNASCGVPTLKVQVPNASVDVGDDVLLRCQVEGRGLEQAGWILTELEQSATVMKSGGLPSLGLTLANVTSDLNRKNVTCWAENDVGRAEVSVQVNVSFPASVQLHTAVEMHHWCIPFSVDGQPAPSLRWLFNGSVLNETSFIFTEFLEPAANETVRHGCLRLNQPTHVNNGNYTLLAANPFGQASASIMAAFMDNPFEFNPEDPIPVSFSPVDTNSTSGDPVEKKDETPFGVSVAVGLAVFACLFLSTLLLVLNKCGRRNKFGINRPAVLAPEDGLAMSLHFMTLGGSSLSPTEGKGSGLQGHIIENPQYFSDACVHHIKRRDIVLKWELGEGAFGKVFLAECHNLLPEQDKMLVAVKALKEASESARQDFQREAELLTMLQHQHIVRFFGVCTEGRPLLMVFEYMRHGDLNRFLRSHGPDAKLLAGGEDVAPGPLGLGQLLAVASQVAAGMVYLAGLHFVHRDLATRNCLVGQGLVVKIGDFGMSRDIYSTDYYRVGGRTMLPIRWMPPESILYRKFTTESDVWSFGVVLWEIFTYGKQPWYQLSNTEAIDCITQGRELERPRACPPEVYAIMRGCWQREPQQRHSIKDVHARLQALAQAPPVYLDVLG

[11] = molecular target: BMP-2-inducible protein kinase (Homo sapiens, UniProt Q9NSY1)
Sequence of BMP-2-inducible protein kinase (Q9NSY1 whole entry): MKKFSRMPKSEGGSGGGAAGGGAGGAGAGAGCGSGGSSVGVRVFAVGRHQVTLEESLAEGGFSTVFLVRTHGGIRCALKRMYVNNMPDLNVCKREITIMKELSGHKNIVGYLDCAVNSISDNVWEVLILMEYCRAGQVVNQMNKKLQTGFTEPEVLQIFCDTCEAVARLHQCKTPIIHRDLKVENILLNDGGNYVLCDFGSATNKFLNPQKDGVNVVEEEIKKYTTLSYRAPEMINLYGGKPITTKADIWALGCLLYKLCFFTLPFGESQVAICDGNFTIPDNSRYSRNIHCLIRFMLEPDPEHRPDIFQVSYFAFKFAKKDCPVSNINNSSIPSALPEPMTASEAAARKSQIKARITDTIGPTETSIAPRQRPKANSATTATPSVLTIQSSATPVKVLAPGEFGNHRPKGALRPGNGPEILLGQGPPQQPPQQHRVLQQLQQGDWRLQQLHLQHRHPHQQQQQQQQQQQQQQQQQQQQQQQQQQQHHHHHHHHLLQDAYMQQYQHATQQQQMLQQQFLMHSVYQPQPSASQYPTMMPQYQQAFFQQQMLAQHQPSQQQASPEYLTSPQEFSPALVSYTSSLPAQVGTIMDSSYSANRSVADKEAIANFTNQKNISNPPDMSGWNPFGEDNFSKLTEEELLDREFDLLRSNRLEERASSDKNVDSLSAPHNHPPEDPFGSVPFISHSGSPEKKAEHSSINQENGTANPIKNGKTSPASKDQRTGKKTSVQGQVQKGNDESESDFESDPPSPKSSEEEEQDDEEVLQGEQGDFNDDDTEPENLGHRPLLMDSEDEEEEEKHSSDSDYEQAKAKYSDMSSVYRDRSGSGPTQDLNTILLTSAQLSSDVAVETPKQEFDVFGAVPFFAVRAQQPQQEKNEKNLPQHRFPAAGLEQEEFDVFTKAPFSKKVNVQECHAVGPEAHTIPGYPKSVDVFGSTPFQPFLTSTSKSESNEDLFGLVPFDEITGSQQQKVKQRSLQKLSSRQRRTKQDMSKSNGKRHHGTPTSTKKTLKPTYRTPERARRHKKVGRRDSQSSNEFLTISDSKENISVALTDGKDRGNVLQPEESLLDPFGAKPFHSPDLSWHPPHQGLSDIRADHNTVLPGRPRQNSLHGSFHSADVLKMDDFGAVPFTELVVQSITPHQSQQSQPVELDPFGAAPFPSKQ

[12] = molecular target: Tyrosine-protein kinase Fgr (Homo sapiens, UniProt P09769)
[13] = molecular target: T3, Mitogen-activated protein kinase 12 (Homo sapiens, UniProt P53778)
T3 sequence (P53778 whole entry): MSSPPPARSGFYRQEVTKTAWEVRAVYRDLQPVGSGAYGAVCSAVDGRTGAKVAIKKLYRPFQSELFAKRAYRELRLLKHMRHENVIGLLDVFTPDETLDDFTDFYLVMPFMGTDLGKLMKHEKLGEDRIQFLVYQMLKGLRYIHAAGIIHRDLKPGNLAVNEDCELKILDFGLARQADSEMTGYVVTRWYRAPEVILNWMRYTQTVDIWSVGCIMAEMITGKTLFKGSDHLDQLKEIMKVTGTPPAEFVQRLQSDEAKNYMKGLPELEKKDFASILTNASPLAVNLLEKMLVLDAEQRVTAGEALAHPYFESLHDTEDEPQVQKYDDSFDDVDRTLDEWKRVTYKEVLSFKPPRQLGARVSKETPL

[14] = molecular target: 5'-AMP-activated protein kinase catalytic subunit alpha-1 (Homo sapiens, UniProt Q13131)
[15] = molecular target: Receptor tyrosine-protein kinase erbB-2 (Homo sapiens, UniProt P04626)
Sequence of Receptor tyrosine-protein kinase erbB-2 (P04626 whole entry): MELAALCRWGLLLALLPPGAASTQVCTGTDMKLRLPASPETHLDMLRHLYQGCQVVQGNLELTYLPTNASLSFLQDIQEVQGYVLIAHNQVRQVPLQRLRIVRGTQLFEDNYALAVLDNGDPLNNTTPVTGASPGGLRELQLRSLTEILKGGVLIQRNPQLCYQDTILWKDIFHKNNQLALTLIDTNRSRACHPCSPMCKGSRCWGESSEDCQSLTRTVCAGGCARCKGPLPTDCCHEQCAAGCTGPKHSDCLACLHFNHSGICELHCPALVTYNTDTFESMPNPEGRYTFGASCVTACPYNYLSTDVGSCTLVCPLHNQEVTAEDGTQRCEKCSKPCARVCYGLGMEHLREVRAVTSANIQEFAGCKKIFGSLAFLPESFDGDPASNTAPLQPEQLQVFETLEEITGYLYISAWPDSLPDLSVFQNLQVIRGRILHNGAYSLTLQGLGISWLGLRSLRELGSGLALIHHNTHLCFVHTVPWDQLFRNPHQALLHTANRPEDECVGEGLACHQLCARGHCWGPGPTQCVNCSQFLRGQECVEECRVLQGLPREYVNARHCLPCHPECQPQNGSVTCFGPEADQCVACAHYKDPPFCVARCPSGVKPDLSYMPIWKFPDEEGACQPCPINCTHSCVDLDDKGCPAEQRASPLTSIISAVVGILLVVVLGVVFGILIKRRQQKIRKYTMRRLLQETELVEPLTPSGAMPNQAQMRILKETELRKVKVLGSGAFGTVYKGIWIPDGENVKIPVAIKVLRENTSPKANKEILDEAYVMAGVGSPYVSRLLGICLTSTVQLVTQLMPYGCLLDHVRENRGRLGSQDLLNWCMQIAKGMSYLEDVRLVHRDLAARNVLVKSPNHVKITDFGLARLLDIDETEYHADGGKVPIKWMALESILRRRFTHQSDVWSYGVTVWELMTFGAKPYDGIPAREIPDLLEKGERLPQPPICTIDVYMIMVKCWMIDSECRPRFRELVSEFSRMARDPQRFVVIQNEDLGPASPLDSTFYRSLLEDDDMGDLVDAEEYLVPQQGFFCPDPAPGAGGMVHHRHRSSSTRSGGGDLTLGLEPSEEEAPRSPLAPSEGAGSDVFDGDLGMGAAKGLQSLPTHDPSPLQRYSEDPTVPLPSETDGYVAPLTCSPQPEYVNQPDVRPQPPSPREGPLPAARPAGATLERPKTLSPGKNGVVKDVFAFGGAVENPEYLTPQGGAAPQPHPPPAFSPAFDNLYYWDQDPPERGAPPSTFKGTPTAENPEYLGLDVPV

[16] = molecular target: Tyrosine-protein kinase Lyn (Homo sapiens, UniProt P07948)
[17] = molecular target: Calcium/calmodulin-dependent protein kinase type II subunit alpha (Homo sapiens, UniProt Q9UQM7)
[18] = molecular target: Fibroblast growth factor receptor 3 (Homo sapiens, UniProt P22607)
[19] = molecular target: Tyrosine-protein kinase JAK2 (Homo sapiens, UniProt O60674)
Sequence of Tyrosine-protein kinase JAK2 (O60674 whole entry): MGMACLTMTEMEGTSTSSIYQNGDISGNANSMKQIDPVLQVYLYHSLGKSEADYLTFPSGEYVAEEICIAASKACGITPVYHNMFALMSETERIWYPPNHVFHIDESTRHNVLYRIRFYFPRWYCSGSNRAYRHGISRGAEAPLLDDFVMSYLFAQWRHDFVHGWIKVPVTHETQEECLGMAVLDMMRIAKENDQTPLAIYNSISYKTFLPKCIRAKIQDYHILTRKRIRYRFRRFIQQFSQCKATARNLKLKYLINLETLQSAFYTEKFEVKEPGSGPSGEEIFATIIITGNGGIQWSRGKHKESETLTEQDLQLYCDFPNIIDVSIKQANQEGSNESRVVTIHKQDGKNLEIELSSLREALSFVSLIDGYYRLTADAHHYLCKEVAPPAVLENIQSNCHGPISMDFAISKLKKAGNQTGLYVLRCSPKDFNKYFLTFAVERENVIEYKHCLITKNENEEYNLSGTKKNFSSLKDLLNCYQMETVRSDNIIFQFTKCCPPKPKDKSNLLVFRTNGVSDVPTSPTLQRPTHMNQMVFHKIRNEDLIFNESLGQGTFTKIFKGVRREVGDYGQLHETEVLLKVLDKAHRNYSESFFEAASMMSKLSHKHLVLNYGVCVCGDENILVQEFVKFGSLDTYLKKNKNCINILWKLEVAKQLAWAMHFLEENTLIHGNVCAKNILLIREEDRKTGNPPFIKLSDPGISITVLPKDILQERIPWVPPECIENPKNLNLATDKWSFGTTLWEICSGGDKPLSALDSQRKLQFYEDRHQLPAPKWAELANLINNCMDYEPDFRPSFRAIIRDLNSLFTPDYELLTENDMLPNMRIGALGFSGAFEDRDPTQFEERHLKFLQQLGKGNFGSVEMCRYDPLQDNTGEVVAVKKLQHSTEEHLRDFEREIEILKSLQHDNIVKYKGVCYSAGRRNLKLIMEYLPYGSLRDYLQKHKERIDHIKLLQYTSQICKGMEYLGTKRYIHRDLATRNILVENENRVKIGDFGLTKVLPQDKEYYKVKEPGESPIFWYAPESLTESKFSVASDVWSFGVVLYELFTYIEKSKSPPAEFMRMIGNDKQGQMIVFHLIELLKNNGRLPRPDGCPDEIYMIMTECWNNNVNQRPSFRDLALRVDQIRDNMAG

[20] = molecular target: Serine/threonine-protein kinase 16 (Homo sapiens, UniProt O75716)
[21] = molecular target: Protein kinase C alpha type (Homo sapiens, UniProt P17252)

Measured: Kd

Sequence of Phosphorylase b kinase gamma catalytic chain, skeletal muscle/heart isoform (Q16816 whole entry, canonical isoform): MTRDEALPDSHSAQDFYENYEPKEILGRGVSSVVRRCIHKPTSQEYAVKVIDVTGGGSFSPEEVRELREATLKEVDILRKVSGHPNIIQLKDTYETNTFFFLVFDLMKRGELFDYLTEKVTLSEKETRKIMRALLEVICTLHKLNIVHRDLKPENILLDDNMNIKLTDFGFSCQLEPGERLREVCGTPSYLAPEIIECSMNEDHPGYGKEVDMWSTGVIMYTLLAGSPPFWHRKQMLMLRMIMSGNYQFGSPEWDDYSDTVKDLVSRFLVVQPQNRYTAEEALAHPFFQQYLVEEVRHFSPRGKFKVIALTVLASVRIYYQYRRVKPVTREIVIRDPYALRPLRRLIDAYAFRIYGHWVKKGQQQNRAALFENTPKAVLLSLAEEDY

CC[C@H](CO)Nc1nc(NCc2ccccc2)c2ncn(C(C)C)c2n1 [SELICICLIB]
Not Active: all assays above
